Source: US9802927B2, “Oxadiazine compounds and methods of use thereof” (Denali Therapeutics, Inc., priority 2015, dated 2017)

Test system: Aβ42
Assay: In vitro cell screening assay in H4 cells expressing human APP751: Aβ42 by sandwich ELISA
Assay type: cell-based
Conditions: Homo sapiens, compounds 0.003-10 μM, incubated overnight (16-18 h), sandwich ELISA of supernatant
Outline: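 H4 neuroglioma cells stably expressing wild-type human APP751, switched to Pro293 medium and treated with compounds (0.003-10 μM, 0.33% DMSO) for 16-18 h at 37 °C. Supernatant Aβ42 quantified by sandwich ELISA (C-terminal capture, 4G8-HRP detection, A450); EC50 by sigmoidal fit normalized to DMSO and DAPT controls.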

| EC50 [nM] | SMILES |
| --- | --- |
| 7.8 | COc1nc(C2=NOC[C@H](c3cc4ccccc4s3)N2)ccc1-n1cnc(C)c1 [Example 13, (R)-5-(Benzo[b]thiophen-2-yl)-3-(6-methoxy-5-(4-methyl-1H-imidazol-1-yl)pyridin-2-yl)-5,6-dihydro-4H-1,2,4-oxadiazine] |
| 38.7 | COc1cc(Cl)c2c(C3CON=C(c4ccc(-n5cnc(C)c5)c(OC)n4)N3)cn(C)c2c1 (single isomer, unassigned; (+)) [Example 261A, (+)-5-(4-chloro-6-methoxy-1-methyl-1H-indol-3-yl)-3-(6-methoxy-5-(4-methyl-1H-imidazol-1-yl)pyridin-2-yl)-5,6-dihydro-4H-1,2,4-oxadiazine] |

Same assay, conditions: compounds 0.003-10 μM, incubated overnight (16-18 h), sandwich ELISA of supernatant

| SMILES | EC50 [nM] |
| --- | --- |
| COc1nc(C2=NOCC(c3cc(Cl)cc(Cl)c3)N2)ccc1-n1cnc(C)c1 (single isomer, unassigned; (-)) [Example 118A, (−)-5-(3,5-dichlorophenyl)-3-(6-methoxy-5-(4-methyl-1H-imidazol-1-yl)pyridin-2-yl)-5,6-dihydro-4H-1,2,4-oxadiazine] | 1510 |
| COc1nc(C2=NOCC(CC(C)C)N2)ccc1-n1cnc(C)c1 (single isomer, unassigned; (+)) [Example 154A, (+)-5-isobutyl-3-(6-methoxy-5-(4-methyl-1H-imidazol-1-yl)pyridin-2-yl)-5,6-dihydro-4H-1,2,4-oxadiazine] | 930 |
| COc1nc(C2=NOCC(c3coc4ccccc34)N2)ccc1-n1cnc(C)c1 (single isomer, unassigned) [Example 38A, 5-(benzofuran-3-yl)-3-(6-methoxy-5-(4-methyl-1H-imidazol-1-yl)pyridin-2-yl)-5,6-dihydro-4H-1,2,4-oxadiazine] | > 3000 |
| CCC1CON=C(c2ccc(-n3cnc(C)c3)c(OC)n2)N1 (single isomer, unassigned) [Example 133A, 5-ethyl-3-(6-methoxy-5-(4-methyl-1H-imidazol-1-yl)pyridin-2-yl)-5,6-dihydro-4H-1,2,4-oxadiazine] | > 3000 |
| COc1nc(C2=NOCC(c3cn(C)c4cc(S(C)(=O)=O)ccc34)N2)ccc1-n1cnc(C)c1 (single isomer, unassigned; (-)) [Example 256A, (−)-3-(6-methoxy-5-(4-methyl-1H-imidazol-1-yl)pyridin-2-yl)-5-(1-methyl-6-(methylsulfonyl)-1H-indol-3-yl)-5,6-dihydro-4H-1,2,4-oxadiazine] | 2590 |
| COc1nc(C2=NOCC(c3ccc(C)cc3)N2)ccc1-n1cnc(C)c1 (single isomer, unassigned; (-)) [Example 227A, (−)-3-(6-methoxy-5-(4-methyl-1H-imidazol-1-yl)pyridin-2-yl)-5-(p-tolyl)-5,6-dihydro-4H-1,2,4-oxadiazine] | 958 |

Continued, values first:

| EC50 [nM] | SMILES |
| --- | --- |
| 425 | COc1nc(C2=NOCC(c3cc4cc(C5CC5)ccc4o3)N2)ccc1-n1cnc(C)c1 (single isomer, unassigned; (-)) [Example 234A, (−)-5-(5-cyclopropylbenzofuran-2-yl)-3-(6-methoxy-5-(4-methyl-1H-imidazol-1-yl)pyridin-2-yl)-5,6-dihydro-4H-1,2,4-oxadiazine] |
| 59.9 | COc1nc(C2=NOCC(c3cn(C)c4ccc(C5CC5)cc34)N2)ccc1-n1cnc(C)c1 (single isomer, unassigned; (-)) [Example 221A, (−)-5-(5-cyclopropyl-1-methyl-1H-indol-3-yl)-3-(6-methoxy-5-(4-methyl-1H-imidazol-1-yl)pyridin-2-yl)-5,6-dihydro-4H-1,2,4-oxadiazine] |
| 4.6 | COc1nc(C2=NOCC(c3cn(C)c4cc(F)c(C(F)(F)F)cc34)N2)ccc1-n1cnc(C)c1 (single isomer, unassigned; (+)) [Example 104B, (+)-5-(6-fluoro-1-methyl-5-(trifluoromethyl)-1H-indol-3-yl)-3-(6-methoxy-5-(4-methyl-1H-imidazol-1-yl)pyridin-2-yl)-5,6-dihydro-4H-1,2,4-oxadiazine] |
| 918 | COc1nc(C2=NOCC(C3CCCC3)N2)ccc1-n1cnc(C)c1 (single isomer, unassigned; (+)) [Example 171A, (+)-5-cyclopentyl-3-(6-methoxy-5-(4-methyl-1H-imidazol-1-yl)pyridin-2-yl)-5,6-dihydro-4H-1,2,4-oxadiazine] |
| 709 | COc1nc(C2=NOCC(c3cccc(OC(F)(F)F)c3)N2)ccc1-n1cnc(C)c1 (single isomer, unassigned; (-)) [Example 242A, (−)-3-(6-methoxy-5-(4-methyl-1H-imidazol-1-yl)pyridin-2-yl)-5-(3-(trifluoromethoxy)phenyl)-5,6-dihydro-4H-1,2,4-oxadiazine] |
| 24.4 | COc1nc(C2=NOCC(c3cn(C)c4cccc(Cl)c34)N2)ccc1-n1cnc(C)c1 (single isomer, unassigned; (-)) [Example 229B, (−)-5-(4-chloro-1-methyl-1H-indol-3-yl)-3-(6-methoxy-5-(4-methyl-1H-imidazol-1-yl)pyridin-2-yl)-5,6-dihydro-4H-1,2,4-oxadiazine] |
| 55.7 | COc1nc(C2=NOCC(c3cccc(C(F)(F)F)c3)N2C)ccc1-n1cnc(C)c1 (centres unmarked) [Example 30A, 3-(6-methoxy-5-(4-methyl-1H-imidazol-1-yl)pyridin-2-yl)-4-methyl-5-(3-(trifluoromethyl)phenyl)-5,6-dihydro-4H-1,2,4-oxadiazine] |
| 52.7 | COc1nc(C2=NOCC(c3ccc4sc(C)nc4c3)N2)ccc1-n1cnc(C)c1 (single isomer, unassigned; (+)) [Example 215B, (+)-3-(6-methoxy-5-(4-methyl-1H-imidazol-1-yl)pyridin-2-yl)-5-(2-methylbenzo[d]thiazol-5-yl)-5,6-dihydro-4H-1,2,4-oxadiazine] |
| 25.7 | COc1nc(C2=NOCC(c3cc4c(F)cccc4o3)N2)ccc1-n1cnc(C)c1 (single isomer, unassigned; (-)) [Example 99B, (−)-5-(4-fluorobenzofuran-2-yl)-3-(6-methoxy-5-(4-methyl-1H-imidazol-1-yl)pyridin-2-yl)-5,6-dihydro-4H-1,2,4-oxadiazine] |
| 105 | COc1nc(C2=NOCC(c3cn(C)c4cccc(C(F)(F)F)c34)N2)ccc1-n1cnc(C)c1 (single isomer, unassigned; (+)) [Example 230A, (+)-3-(6-methoxy-5-(4-methyl-1H-imidazol-1-yl)pyridin-2-yl)-5-(1-methyl-4-(trifluoromethyl)-1H-indol-3-yl)-5,6-dihydro-4H-1,2,4-oxadiazine] |
| 92.2 | COc1nc(C2=NOCC(c3ccc(F)c(F)c3)N2)ccc1-n1cnc(C)c1 (single isomer, unassigned; (+)) [Example 75B, (+)-5-(3,4-difluorophenyl)-3-(6-methoxy-5-(4-methyl-1H-imidazol-1-yl)pyridin-2-yl)-5,6-dihydro-4H-1,2,4-oxadiazine] |
| 5 | COc1nc(C2=NOCC(c3cn(C)c4ccc(Cl)c(F)c34)N2)ccc1-n1cnc(C)c1 (single isomer, unassigned; (+)) [Example 237A, (+)-5-(5-chloro-4-fluoro-1-methyl-1H-indol-3-yl)-3-(6-methoxy-5-(4-methyl-1H-imidazol-1-yl)pyridin-2-yl)-5,6-dihydro-4H-1,2,4-oxadiazine] |
